{"source": "ChEMBL document CHEMBL1158059", "about": "“Oculatol, oculatolide, and A-nor sterols from the sponge Haliclona oculata” (J Nat Prod, 2006)", "key": {"Bel-7402": {"tested_on": "Bel-7402", "test": "Cytotoxicity against human Bel-7402 cells", "assay_type": "functional, cell-based"}, "HL-60": {"tested_on": "HL-60", "test": "Cytotoxicity against human HL-60 cells", "assay_type": "functional, cell-based"}, "[1]": {"biological_target": "T1, Tyrosine-protein phosphatase non-receptor type 1 (Homo sapiens, UniProt P18031)", "T1 sequence (P18031 whole entry)": "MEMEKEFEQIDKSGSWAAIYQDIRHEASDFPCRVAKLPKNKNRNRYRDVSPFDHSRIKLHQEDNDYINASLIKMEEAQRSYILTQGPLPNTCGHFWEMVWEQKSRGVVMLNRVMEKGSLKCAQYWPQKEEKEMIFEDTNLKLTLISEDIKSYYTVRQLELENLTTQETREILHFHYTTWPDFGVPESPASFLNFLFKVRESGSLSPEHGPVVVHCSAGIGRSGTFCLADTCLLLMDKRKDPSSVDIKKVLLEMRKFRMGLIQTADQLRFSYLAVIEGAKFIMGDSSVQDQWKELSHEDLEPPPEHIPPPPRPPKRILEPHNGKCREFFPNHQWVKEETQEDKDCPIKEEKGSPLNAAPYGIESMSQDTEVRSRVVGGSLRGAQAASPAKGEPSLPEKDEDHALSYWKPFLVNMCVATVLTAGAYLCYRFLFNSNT", "test": "Inhibition of PTP1B"}, "HeLa": {"tested_on": "HeLa", "test": "Cytotoxicity against human HeLa cells", "assay_type": "functional, cell-based"}, "[2]": {"biological_target": "T2, Prostaglandin G/H synthase 2 (Homo sapiens, UniProt P35354)", "T2 sequence (P35354 whole entry)": "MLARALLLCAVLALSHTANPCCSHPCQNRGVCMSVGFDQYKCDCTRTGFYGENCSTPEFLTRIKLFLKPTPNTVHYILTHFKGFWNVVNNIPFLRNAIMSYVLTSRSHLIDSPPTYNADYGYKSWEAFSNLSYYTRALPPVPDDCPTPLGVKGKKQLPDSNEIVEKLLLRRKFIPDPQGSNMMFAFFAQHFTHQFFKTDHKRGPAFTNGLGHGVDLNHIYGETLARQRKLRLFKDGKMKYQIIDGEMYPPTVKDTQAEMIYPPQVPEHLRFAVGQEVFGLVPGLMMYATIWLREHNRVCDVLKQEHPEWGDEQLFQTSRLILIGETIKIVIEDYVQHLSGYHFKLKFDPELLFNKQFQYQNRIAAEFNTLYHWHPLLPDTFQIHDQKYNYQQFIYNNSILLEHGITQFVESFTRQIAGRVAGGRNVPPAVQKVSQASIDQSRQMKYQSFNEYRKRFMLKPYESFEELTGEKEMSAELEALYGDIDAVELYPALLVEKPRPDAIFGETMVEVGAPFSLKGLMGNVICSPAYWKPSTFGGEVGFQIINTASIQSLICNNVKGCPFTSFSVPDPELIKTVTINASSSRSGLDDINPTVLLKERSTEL", "test": "Inhibition of COX2"}, "A549": {"tested_on": "A549", "test": "Cytotoxicity against human A549 cells", "assay_type": "functional, cell-based"}, "Acetylcholinesterase": {"biological_target": "Acetylcholinesterase (Homo sapiens, UniProt P22303)", "sequence (P22303 whole entry)": "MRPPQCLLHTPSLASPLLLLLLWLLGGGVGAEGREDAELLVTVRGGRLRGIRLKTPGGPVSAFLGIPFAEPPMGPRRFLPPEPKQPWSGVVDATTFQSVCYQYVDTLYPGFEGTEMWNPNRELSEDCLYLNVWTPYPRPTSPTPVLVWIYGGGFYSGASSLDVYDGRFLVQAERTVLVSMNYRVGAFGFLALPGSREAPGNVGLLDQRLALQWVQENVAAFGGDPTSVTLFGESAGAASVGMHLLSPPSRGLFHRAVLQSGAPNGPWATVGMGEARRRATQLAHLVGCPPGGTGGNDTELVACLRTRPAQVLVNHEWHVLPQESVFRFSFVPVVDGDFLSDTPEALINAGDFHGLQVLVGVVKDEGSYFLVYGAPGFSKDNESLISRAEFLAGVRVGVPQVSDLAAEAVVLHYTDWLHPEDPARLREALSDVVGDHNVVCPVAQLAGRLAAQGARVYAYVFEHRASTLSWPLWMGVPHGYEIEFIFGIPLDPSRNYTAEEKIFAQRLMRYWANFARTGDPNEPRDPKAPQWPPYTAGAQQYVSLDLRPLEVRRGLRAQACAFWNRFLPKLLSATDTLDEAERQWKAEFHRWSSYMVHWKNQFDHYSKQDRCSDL", "test": "Inhibition of AChE"}}}
{"smiles": "C=C(CC[C@@H](C)[C@H]1CC[C@H]2[C@@H]3CC=C4C(=O)[C@](O)(C(=O)OCC)C[C@]4(C)[C@H]3CC[C@]12C)C(C)C", "values": [{"measurement": "IC50", "setting": "Bel-7402", "value": 0.73, "unit": "µg/mL"}, {"measurement": "IC50", "setting": "HL-60", "value": 0.32, "unit": "µg/mL"}, {"measurement": "IC50", "setting": "[1]", "value": "> 21.2", "unit": "µM"}, {"measurement": "IC50", "setting": "HeLa", "value": "> 10", "unit": "µg/mL"}, {"measurement": "IC50", "setting": "[2]", "value": "> 21.2", "unit": "µM"}, {"measurement": "IC50", "setting": "A549", "value": 0.47, "unit": "µg/mL"}, {"measurement": "IC50", "setting": "Acetylcholinesterase", "value": "> 21.2", "unit": "µM"}]}
